# Data: patent US20190135834A1, “5-SUBSTITUTED AZABENZIMIDAZOLE DERIVATIVE HAVING ???? ACTIVATION ACTION” (Shionogi & Co., Ltd., priority 2016, published 2019)
# Molecular target: T1, Human AMPK α2ß2γ1 (Homo sapiens, UniProt O43741+P54646)
# T1 construct: The full length cDNAs of human AMPK ß2 (NM_005399.3) and human AMPK α2 (NM_006252.3); The full length cDNAs of human AMPK ß2 (NM_005399.3); 6xHis (N); made in house; host or cells: Escherichia coli BL21 CodonPlus (DE3)-RIL
# Assay: Test Example 2: evaluation of an activator for AMP-activated protein kinase (AMPK), LabChip mobility shift assay with CaMKK2-phosphorylated enzyme
# Format: biochemical
# Details: for EC150 (compound concentration showing 150% relative to the control (100%)): FL-Peptide 7 substrate, 25° C., 2 hours; for Emax / Emax (maximum rate of increase in activity within the measurement range): relative to control (100%); for Emax: read-out: Emax (maximum rate of increase in activity within the measurement range)
# Description: The full length cDNAs of human AMPK ß2 (NM_005399.3) and human AMPK α2 (NM_006252.3) were inserted into the MCS1 and MCS2 of the pETDuet-1 vector to prepare a human AMPK ß2 and human AMPK α2 (6× His tag at the 5′ terminus) expressing plasmid. The plasmid was cotransfected with an expression plasmid, in which the full length cDNA of human AMPK γ1 (NM_002733.3) had been inserted into pET28b(+), into BL21 CodonPlus (DE3)-RIL to obtain an expression strain. The expression strain was cultured in TB medium, followed by induction with 0.5 mM IPTG, and cultured at 25° C. for 3 hours and then harvested. After ultrasonication, supernatant was collected and applied to Histrap FF column (GE) and RESOURCE Q column (GE) to prepare 12.5 mg of purified sample containing three types of subunit from 1.8 L of broth.
# Preparation method of human CaMKK2 used to impart activity to AMPK An expression vector, in which the full length cDNA of human CAMKK ß (NM_172226.1) had been inserted into pGEX-6P-3, was transfected into BL21 Star (DE3). The expression strain was cultured in TB medium, followed by induction with 0.5 mM IPTG, and cultured at 25° C. for 3 hours and then harvested. After ultrasonication, supernatant was collected and applied to GSTrap FF column (GE) to prepare 14 mg of GST-fused CAMKK ß from 720 ml of broth.
# Thus, phosphorylation treatment was carried out as pretreatment.
# Human AMPK α2ß2γ1 in an amount to give a conversion rate of approximately 10% by reaction for 2 hours, and CaMKK2 in an amount capable of sufficiently imparting activity to AMPK for one hour were mixed in a buffer solution consisting of a 50 mM HEPES-NaOH buffer solution (pH 7.0), 100 mM NaCl, 5 mM magnesium chloride, 0.1% bovine serum albumin, 0.2 mM sodium orthovanadate(V), 1 mM ethylene glycol-bis(2-aminoethyl ether)-N,N,N′,N′-tetraacetic acid (EGTA), 5 mM disodium ß-glycerophosphate, 1 mM dithiothreitol and 0.2 mM ATP, and the resulting liquid was left to stand at 25° C. for 1 to 1.5 hours to sufficiently phosphorylate AMPK.
# After that, to the enzyme liquid, which had been subjected to phosphorylation treatment, a compound dissolved in DMSO was added so as to have a 1% DMSO concentration. The resulting liquid was left to stand for 10 minutes.
# To the liquid, a substrate solution consisting of a 50 mM HEPES-NaOH buffer solution (pH 7.0), 100 mM NaCl, 10 mM magnesium chloride, 0.1% bovine serum albumin, 0.2 mM sodium orthovanadate(V), 1 mM ethylene glycol-bis(2-aminoethyl ether)-N,N,N′,N′-tetraacetic acid (EGTA), 5 mM disodium ß-glycerophosphate, 2 mM dithiothreitol, 0.4 mM ATP and 3 μM FL-Peptide 7 (manufactured by Caliper Life Sciences, Inc.) was added in equal amount (10 μl in total). The resulting liquid was allowed to react at 25° C. for 2 hours, and 10 μl of 20 mM EDTA was added thereto to stop the reaction.
# To detect phosphorylated fluorescent substrates, the reaction mixture was applied to a measuring device, LabChip EZ Reader II manufactured by Caliper Life Science, Inc., for detecting fluorescence by using differences in mobility due to differences in charge. The setting conditions for the device were pressure, −1.5 PSI; upstream voltage, −2250 V; downstream voltage, −400 V; post sample buffer sip time, 40 seconds; final delay, 120 seconds; and peak order, Product First.
# A conversion rate was calculated from the peak heights of the obtained substrate and product. The conversion rate when not containing a compound was used as a control, and a concentration dependent curve was made by plotting the rate of increase in activity to the control at each concentration of a compound.
# T1 sequence (P54646 whole entry): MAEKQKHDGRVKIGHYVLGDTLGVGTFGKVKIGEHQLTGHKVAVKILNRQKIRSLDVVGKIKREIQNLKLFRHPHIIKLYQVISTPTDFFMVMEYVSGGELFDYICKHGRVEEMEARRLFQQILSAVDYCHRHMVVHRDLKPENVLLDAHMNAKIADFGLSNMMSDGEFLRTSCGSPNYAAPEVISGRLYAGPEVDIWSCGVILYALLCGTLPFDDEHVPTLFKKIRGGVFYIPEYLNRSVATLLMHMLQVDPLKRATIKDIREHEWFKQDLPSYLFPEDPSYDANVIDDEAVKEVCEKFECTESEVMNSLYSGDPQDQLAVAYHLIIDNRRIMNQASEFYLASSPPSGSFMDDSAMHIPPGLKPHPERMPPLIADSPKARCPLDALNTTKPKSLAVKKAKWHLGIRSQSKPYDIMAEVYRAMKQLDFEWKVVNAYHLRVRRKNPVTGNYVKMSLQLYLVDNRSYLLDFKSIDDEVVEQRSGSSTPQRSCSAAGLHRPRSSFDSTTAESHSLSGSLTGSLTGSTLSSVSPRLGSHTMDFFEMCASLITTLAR
# T1 sequence (O43741 whole entry): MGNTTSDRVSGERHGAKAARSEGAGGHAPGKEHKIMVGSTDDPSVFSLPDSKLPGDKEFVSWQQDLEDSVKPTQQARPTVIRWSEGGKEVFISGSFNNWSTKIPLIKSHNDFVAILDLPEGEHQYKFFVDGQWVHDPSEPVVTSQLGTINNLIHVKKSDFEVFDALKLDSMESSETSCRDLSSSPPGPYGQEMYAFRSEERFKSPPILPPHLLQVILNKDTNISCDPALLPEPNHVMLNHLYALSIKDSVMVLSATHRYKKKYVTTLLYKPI
# T1 sequence (P54619 whole entry partner): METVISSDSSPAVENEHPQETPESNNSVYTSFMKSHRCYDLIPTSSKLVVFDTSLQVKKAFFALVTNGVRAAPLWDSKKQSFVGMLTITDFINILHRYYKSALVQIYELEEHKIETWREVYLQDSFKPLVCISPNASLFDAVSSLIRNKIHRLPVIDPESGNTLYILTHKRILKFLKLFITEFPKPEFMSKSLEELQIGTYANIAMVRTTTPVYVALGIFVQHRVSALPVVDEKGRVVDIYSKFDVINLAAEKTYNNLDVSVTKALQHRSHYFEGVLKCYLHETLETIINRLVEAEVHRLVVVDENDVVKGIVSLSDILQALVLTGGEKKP
SMILES,EC150 (compound concentration showing 150% relative to the control (100%)) [nM],Emax [%],Emax (maximum rate of increase in activity within the measurement range) [%]
O[C@@H]1CO[C@H]2[C@@H]1OC[C@H]2Oc1nc2nc(NC3CCc4cc(OC5CCOCC5)cc(F)c43)c(Cl)cc2[nH]1 (stereo partly shown) [Compound I-1-35],4.3,402,–
"Cn1cc(-c2cc(F)c3c(c2)CCC3Nc2nc3nc(O[C@@H]4CO[C@H](CO)C4)[nH]c3cc2Cl)cn1 (single isomer, unassigned) [Compound I-1-29]",1.9,426,–
O[C@@H]1CO[C@H]2[C@@H]1OC[C@H]2Oc1nc2nc(NC3CCc4cc(OCC(F)F)cc(F)c43)c(Cl)cc2[nH]1 (stereo partly shown) [Compound I-2-75],2.7,581,–
COc1ncc(-c2cc(F)c3c(c2)CC[C@@H]3Nc2nc3nc(O[C@@H]4CO[C@H]5[C@@H]4OC[C@H]5O)[nH]c3cc2Cl)cn1 [Compound I-2-56],0.81,681,–
O[C@@H]1CO[C@H]2[C@@H]1OC[C@H]2Oc1nc2nc(N[C@H]3CCc4cc(-c5cnc(C(F)(F)F)nc5)cc(F)c43)c(Cl)cc2[nH]1 [Compound I-2-64],9.3,676,–
O[C@@H]1CO[C@H]2[C@@H]1OC[C@H]2Oc1nc2nc(NC3CCc4cc(-c5ccoc5)cc(F)c43)c(Cl)cc2[nH]1 (stereo partly shown) [Compound I-2-21],4.9,650,–
CCOC/C=C/c1cc(F)c2c(c1)CC[C@@H]2Nc1nc2nc(O[C@@H]3CO[C@H]4[C@@H]3OC[C@H]4O)[nH]c2cc1Cl [Compound I-2-07],2,727,–
COCCNc1cnc2c(c1)CCC2Nc1nc2nc(O[C@@H]3CO[C@H]4[C@@H]3OC[C@H]4O)[nH]c2cc1Cl (stereo partly shown) [Compound I-1-14],33,371,–
Cn1cc(-c2cc(F)c3c(c2)CC[C@@H]3Nc2nc3nc(O[C@@H]4CO[C@H]5[C@@H]4OC[C@H]5O)[nH]c3cc2Cl)cc(F)c1=O [Compound I-2-68],1.8,600,–
O[C@@H]1CO[C@H]2[C@@H]1OC[C@H]2Oc1nc2nc(NC3CCc4cc(Br)cnc43)c(Cl)cc2[nH]1 (stereo partly shown) [Compound I-1-4],11,547,–
O=C1CCCN1CCOc1cc(F)c2c(c1)CCC2Nc1nc2nc(O[C@@H]3CO[C@H]4[C@@H]3OC[C@H]4O)[nH]c2cc1Cl (stereo partly shown) [Compound I-1-98],3.6,–,434
Cc1cc(-c2cc(F)c3c(c2)CC[C@@H]3Nc2nc3nc(O[C@@H]4CO[C@H]5[C@@H]4OC[C@H]5O)[nH]c3cc2Cl)cnn1 [Compound I-2-45],2.1,711,–
"Cn1ccc(-c2cc(F)c3c(c2)CCC3Oc2nc3nc(O[C@@H]4CO[C@H]5[C@@H]4OC[C@H]5O)[nH]c3cc2Cl)cc1=O (single isomer, unassigned) [Compound I-1-23]",1.3,454,–
O[C@@H]1CO[C@H]2[C@@H]1OC[C@H]2Oc1nc2nc(NC3CCc4cc(OCC5COC5)cc(F)c43)c(Cl)cc2[nH]1 (stereo partly shown) [Compound I-2-53],4,637,–
O[C@@H]1CO[C@H]2[C@@H]1OC[C@H]2Oc1nc2nc(OC3CCc4cc(-c5cscn5)cc(F)c43)c(Cl)cc2[nH]1 (stereo partly shown) [Compound I-1-74],9.9,373,–
O[C@@H]1CO[C@H]2[C@@H]1OC[C@H]2Oc1nc2nc(NC3CCc4cc(C5=CCOCC5)cnc43)c(Cl)cc2[nH]1 (stereo partly shown) [Compound I-1-48],15,393,–
COc1ccc(-c2cc(F)c3c(c2)CCC3Nc2nc3nc(O[C@@H]4CO[C@H]5[C@@H]4OC[C@H]5O)[nH]c3cc2Cl)cn1 (stereo partly shown) [Compound I-1-86],28,–,379
COC/C=C/c1cc(F)c2c(c1)CC[C@@H]2Nc1nc2nc(O[C@@H]3CO[C@H]4[C@@H]3OC[C@H]4O)[nH]c2cc1Cl [Compound I-1-94],5.6,416,–
"COC/C=C/c1cc(F)c2c(c1)CCC2Oc1nc2nc(O[C@@H]3CO[C@H]4[C@@H]3OC[C@H]4O)[nH]c2cc1Cl (single isomer, unassigned) [Compound I-1-19]",3.5,404,–
CC(C)(O)CCOc1cc(F)c2c(c1)CCC2Nc1nc2nc(O[C@@H]3CO[C@H]4[C@@H]3OC[C@H]4O)[nH]c2cc1Cl (stereo partly shown) [Compound I-1-88],5.9,376,–
COCC1CC1c1cc(F)c2c(c1)CC[C@@H]2Nc1nc2nc(O[C@@H]3CO[C@H]4[C@@H]3OC[C@H]4O)[nH]c2cc1Cl (stereo partly shown) [Compound I-2-02],2.4,557,–
CS(=O)(=O)CCCOc1cc(F)c2c(c1)CCC2Nc1nc2nc(O[C@@H]3CO[C@H]4[C@@H]3OC[C@H]4O)[nH]c2cc1Cl (stereo partly shown) [Compound I-2-55],3.6,637,–
CCc1ncc(-c2cc(F)c3c(c2)CC[C@@H]3Nc2nc3nc(O[C@@H]4CO[C@H]5[C@@H]4OC[C@H]5O)[nH]c3cc2Cl)cn1 [Compound I-2-69],3,598,–
COCCOc1cc(F)c2c(c1)CCC2Nc1nc2nc(O[C@@H]3CO[C@H](CO)C3)[nH]c2cc1Cl (stereo partly shown) [Compound I-1-104],2.3,423,–
CC(=O)Nc1cc(F)c2c(c1)CCC2Nc1nc2nc(O[C@@H]3CO[C@H]4[C@@H]3OC[C@H]4O)[nH]c2cc1Cl (stereo partly shown) [Compound I-1-45],4.7,435,–
Cn1cc(-c2cnc3c(c2)CCC3Nc2nc3nc(O[C@@H]4CO[C@H]5[C@@H]4OC[C@H]5O)[nH]c3cc2Cl)cn1 (stereo partly shown) [Compound I-1-7],1.6,614,–
O=C(NCCOc1cc(F)c2c(c1)CCC2Nc1nc2nc(O[C@@H]3CO[C@H]4[C@@H]3OC[C@H]4O)[nH]c2cc1Cl)C1CCC1 (stereo partly shown) [Compound I-2-34],6.6,719,–
Cc1ccc(-c2cc(F)c3c(c2)CC[C@@H]3Nc2nc3nc(O[C@@H]4CO[C@H]5[C@@H]4OC[C@H]5O)[nH]c3cc2Cl)cn1 [Compound I-2-66],8.6,711,–
"COCCCc1cnc2c(c1)CCC2Nc1nc2nc(O[C@@H]3CO[C@H]4[C@@H]3OC[C@H]4O)[nH]c2cc1Cl (single isomer, unassigned) [Compound I-1-10]",8.4,608,–
